Entries after “also recorded” stand apart in the source; their conditions may differ.
Tests used:
[1] = Antioxidant activity (DPPH assay); settings: for IC50: DPPH 0.4 mM, 30 min in darkness, read-out: IC50 (µM) ± RSD, antioxidative activity
Procedure: Increased generation of free radicals also results in cytotoxicity from Aβ42. This effect might be associated with the Aβ1–42 mediated neurotoxicity. Therefore, it was intriguing to research the roles of the synthesized compounds in assisting oxidative stress, thus preventing cell death. By employing vitamin C as a positive control, the antioxidative properties of synthesized compounds were assessed using the DPPH assay. The activities were presented as the IC50 in Table 4.
Antioxidant activity of tested compounds was determined by the reaction of stable DPPH radical with some modification. Briefly, various concentrations of test compounds were added in 96-well plates and then the methanolic DPPH solution (0.4 mM, 0.1 mL) into each well. The reaction mixture was placed for 30 min in darkness. The degree of purple DPPH decolorization to yellow DPPH indicated the scavenging capacity of the test compounds. The absorbance of the mixture was determined at 517 nm using a microplate reader and L-ascorbic acid served as a positive control. The percent of antioxidant activity was calculated as follow: [1 − (Asample − Ablank)/Acontrol] × 100.

Aβ1–42 = molecular target: T1, Aβ1–42 (Homo sapiens, UniProt P05067); test: Anti-Aβ aggregation activity (Thioflavin T fluorescence assay); type: biochemical; settings: for IC50: ThT assay, Aβ1–42, 24 h, room temperature, pH 7.4, read-out: IC50 (µM) ± RSD, antiaggregation action on Aβ42
T1 construct: Amyloid beta (Aβ1–42) was purchased from the American Peptide Company; purchased American Peptide Company (Sunnyvale, CA, USA)
T1 sequence (P05067 672-713): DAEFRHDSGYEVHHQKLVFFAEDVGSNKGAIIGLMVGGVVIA
Procedure: Each compound was diluted in 50 mM Tris-HCl (pH 7.4) to achieve a concentration between 10 nM and 100 µM using 5 concentration points. A total of 1 µL of each sample solution was added to 96-well plates. […] The plate was incubated in the dark at room temperature for 24 h with no agitation. After an incubation period, 200 µL of 5 µM ThT in 50 mM Tris-HCl (pH 7.4) was added to each well. Fluorescence was measured on a SpectraMax GEMINI EM (Molecular Devices, Sunnyvale, CA, USA) dual scanning microplate spectrofluorometer with excitation and emission wavelengths at 446 nm and 500 nm, respectively. The percent of antiaggregation was calculated as follows: [1 − (Fsample − Fblank)/Fcontrol] × 100.

[2] = molecular target: T2, Acetylcholinesterase (AChE) (Electrophorus electricus, UniProt O42275); test: Antiacetylcholinesterase activity (Ellman assay); type: biochemical, Electrophorus electricus (electric eel); settings: for inhibition at 100 µM: read-out: % Inhibition ± RSD of acetylcholinesterase; for % Inhibition ± RSD of acetylcholinesterase: at 100 µM
T2 construct: purchased Sigma type VI-S
T2 sequence (O42275 24-633): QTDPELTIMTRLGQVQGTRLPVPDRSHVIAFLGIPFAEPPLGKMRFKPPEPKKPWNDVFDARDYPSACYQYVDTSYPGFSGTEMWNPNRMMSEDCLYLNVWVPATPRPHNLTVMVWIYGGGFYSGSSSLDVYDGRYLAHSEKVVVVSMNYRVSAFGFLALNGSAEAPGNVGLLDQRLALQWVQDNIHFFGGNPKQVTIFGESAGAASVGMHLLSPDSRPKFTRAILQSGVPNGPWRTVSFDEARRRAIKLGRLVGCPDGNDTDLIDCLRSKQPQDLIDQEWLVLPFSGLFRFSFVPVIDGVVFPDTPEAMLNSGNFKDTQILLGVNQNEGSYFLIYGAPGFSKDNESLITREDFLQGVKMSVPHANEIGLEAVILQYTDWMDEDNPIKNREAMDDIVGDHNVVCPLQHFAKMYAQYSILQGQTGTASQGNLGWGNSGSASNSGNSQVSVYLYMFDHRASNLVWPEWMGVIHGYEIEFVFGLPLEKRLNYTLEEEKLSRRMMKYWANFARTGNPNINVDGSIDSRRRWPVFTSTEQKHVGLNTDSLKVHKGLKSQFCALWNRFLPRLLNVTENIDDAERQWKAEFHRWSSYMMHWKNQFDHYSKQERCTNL
Procedure: All the chemicals were purchased from commercial suppliers and were used without any purification. Acetylcholinesterase from Electrophorus electricus (electric eel) type VI-S was produced from Sigma. […] SK-N-SH human neuroblastoma cell line was obtained from the American Type Culture Collection (ATCC HTB-11). The melting point of all compounds was determined on an Electrothermal model 9100 capillary melting point apparatus. Infrared (IR) spectra were run on Fourier Transform Infrared Spectroscopy (FT-IR) (Nicolet 6700, Thermo Scientific, Waltham, MA, USA) using the direct compression technique and record in cm^−1. Proton and carbon nuclear magnetic resonance (^1H NMR, ^13C NMR) spectra were obtained on an Advance 300 MHz NMR Spectroscopy (DPX-3000, Bruker, Switzerland) at 300 MHz and 75.45 MHz, respectively. Chemical shifts (δ) were reported in parts per million (ppm). The NMR solvents used were deuterated dimethylsulfoxide (DMSO-d6, δ = 2.49 ppm) and deuterated chloroform (CDCl3, δ = 7.25 ppm). Mass spectra were determined on a LCQ Fleet Ion Trap Mass Spectrometry using the ESI method. Silica gel 60 (Merck, Art 7734) was used for column chromatography as an adsorbent. The ratio of sample and the adsorbent was about 1:40–60 by weight. The mobile phases developed for thin-layer chromatography (TLC) were generally applied for a column. TLC investigations routinely used for chromatographic separations were carried out on silica gel F254 coated aluminum sheets 20 × 20 cm (Merck, 0.2 mm thickness). The components were detected by visualization under ultraviolet (UV) light at λ of 254 and 365 nm. All solvents were reagent grade and, when necessary, were purified and dried by standard methods. Starting materials and reagents were obtained from commercial suppliers.
Acetylcholinesterase (AChE) inhibitory activity was assayed by modified Ellman’s method using 96-well microplates. […] The absorbance of the mixture in each well was measured at 405 nm by using a microplate reader. After adding 25 µL of 0.22 U/mL AChE in Buffer II into each well, the measurement of absorbance was carried out again at 405 nm and repeated every 45 s for 10 min cycles by a microplate reader (Infinite M200, Tecan, Switzerland). […] The assay was performed in triplicate. […] The percent of enzyme inhibition was calculated as follows: {[(A-B) − (C − D)]/(A − B)} × 100, where A and C were the absorbances of the control treatment and test compounds; and B and D were blank of control and test compounds.

[3] = system: SK-N-SH neuroblastoma cells; test: Cytotoxicity on SK-N-SH neuroblastoma cells (MTT assay); settings: MTT, 24 h; for Highest concentration that showed nontoxicity on SK-N-SH cells: tested 0–1000 µM; for % Viability ± RSD at the highest nontoxic concentration: at the concentration of Table 2
Procedure: (§1) SK-N-SH cells were pretreated for 3 h with the respective half-maximal inhibitory doses of the tested compounds (except 9 and 10) before incubating with 25 μM Aβ42 for 24 h to determine the neuroprotective effect against Aβ42-induced toxicity. The relative cell viability (compared with the control) was then assessed.
(§2) Quantitative measurement of cell viability was performed by MTT assay. Briefly, SK-N-SH cells were seeded at a density of 5 × 10^4 cells/100 µL into each well of 96-well plate and incubated at 37 °C in 5% CO2 for 24 h. After incubation, the tested compounds were added at different concentrations, from 0 to 1000 µM. After incubation for 24 h, 50 µL of 3-(4,5-dimethylthiazol-2-yl)-2,5-diphenyltetrazolium bromide (MTT) stock solution (1 mg/mL) was added to each well and incubated at 37 °C for 3 h. Absorbance (A) of each well was measured using a plate reader at a wavelength of 590 nm. Three independent experiments were performed, and results were expressed as mean ± SD. […] Each concentration was prepared in triplicate. […] After incubation for 24 h, 50 µL of MTT stock solution (1 mg/mL) was added to each well and incubated at 37 °C for 3 h. The absorbance (A) of each well was measured using a plate reader at a wavelength of 590 nm. Three independent experiments were performed, and results were expressed as mean ± SD.
(§3) The percent of cell viability was calculated as follow: (A590nm of treated cells/A590nm of untreated cells) × 100.

in vitro = settings: human
Procedure: as §1, §2, §3

[4] = system: SK-N-SH neuroblastoma cells; test: Protection of SK-N-SH neuroblastoma against Aβ42-induced cell death (MTT assay); settings: for viability at 31.25 µM: Homo sapiens, SK-N-SH, read-out: % Viability ± RSD, neuroprotective effect against Aβ induced damage; for % Viability ± RSD, neuroprotective effect against Aβ induced damage: pretreated 3 h at IC50 of antiaggregation (compounds 9 and 10 at 31.25 µM), then 25 µM Aβ42 for 24 h
Procedure: The effects of Aβ42 on the viability of SK-N-SH neuroblastoma cells were investigated using an MTT reduction test. MTT is a tetrazolium salt that can be reduced to formazan by mitochondria dehydrogenase; the reaction is active only in living cells.
The relative cell viability (compared with the control) was then assessed.
as §2, §3

SK-N-SH cells = test: Morphological cell changes (phase contrast inverted microscope); type: cell-based, human; settings: 25 µM Aβ42, 24 h
Procedure: The effect of Aβ42 in inducing cell death was confirmed using a phase-contrast inverted microscope.
To determine the effect of designed compounds on cell morphology, the observation of cells on phase contrast inverted microscope was performed. […] After incubation, the medium was removed and replaced with various concentrations of the designed compound and incubated for 24 h. After cells were treated with compounds or Aβ1–42, media were removed and treated cells were washed once with phosphate buffer saline (PBS). Then, cells were observed under phase contrast inverted microscope at 400 magnifications.

Structure (SMILES): Cc1[nH]c2ccc(Oc3ccccc3)cc2c1CC(=O)O [Compound 3, 2-Methyl-3-(carboxymethyl)-5-phenoxy Indole]
- IC50 [1]: 47.1 µM
- IC50 (Aβ1–42): 18.8 µM
- inhibition at 100 µM [2]: 29.3%
- Highest concentration that showed nontoxicity on SK-N-SH cells [3]: 31.25 µM
- viability at 24 h (in vitro): 90.4 ± 3.69%

Structure (SMILES): CNC(=O)Cc1c(C)[nH]c2ccc(Oc3ccccc3)cc12 [Compound 4, 2-Methyl-3-(methylethanamide-2-yl)-5-phenoxy Indole]
- IC50 [1]: 176 µM
- IC50 (Aβ1–42): 3.26 µM
- Fold more potent against Aβ aggregation than methyl ester 7 (Aβ1–42; compared to compound 7): 4.3 fold
- viability at 31.25 µM [4]: 72.3 ± 1.85%
- inhibition at 100 µM [2]: 9.73%
- Highest concentration that showed nontoxicity on SK-N-SH cells [3]: 31.25 µM
- viability at 24 h (in vitro): 93.7 ± 3.23%

Structure (SMILES): Cc1[nH]c2ccc(Oc3ccccc3)cc2c1CC(=O)NS(C)(=O)=O [Compound 5, 2-Methyl-3-(methylsulfonylethanamide-2-yl)-5-phenoxy Indole]
- IC50 [1]: 28.2 µM
- IC50 (Aβ1–42): 3.18 µM
- Morphology of SK-N-SH cells treated with Aβ42 and compound (SK-N-SH cells): healthy cell bodies with neurites; also recorded: healthy cell bodies and neuritis
- inhibition at 100 µM [2]: -5.66%
- Highest concentration that showed nontoxicity on SK-N-SH cells [3]: 62.50 µM
- viability at 24 h (in vitro): 93 ± 1.02%

Structure (SMILES): CCOC(=O)Cc1c(C)[nH]c2ccc(Oc3ccccc3)cc12 [Compound 6, 2-Methyl-3-(ethyl ethanoate-2-yl)-5-phenoxy Indole]
- IC50 [1]: 190 µM
- IC50 (Aβ1–42): 19.1 µM
- inhibition at 100 µM [2]: 19.9%
- Highest concentration that showed nontoxicity on SK-N-SH cells [3]: 31.25. µM
- viability at 24 h (in vitro): 89.5 ± 2.11%

Structure (SMILES): COC(=O)Cc1c(C)[nH]c2ccc(Oc3ccccc3)cc12 [Compound 7, 2-Methyl-3-(methyl ethanoate-2-yl)-5-phenoxy Indole]
- IC50 [1]: 145 µM
- IC50 (Aβ1–42): 14 µM
- viability at 31.25 µM [4]: 83.7 ± 2.21%
- inhibition at 100 µM [2]: 11%
- Highest concentration that showed nontoxicity on SK-N-SH cells [3]: 31.25 µM
- viability at 24 h (in vitro): 93.4 ± 2.15%

Structure (SMILES): Cc1[nH]c2ccc(Oc3ccccc3)cc2c1CC(=O)NC#N [Compound 8, 2-Methyl-3-(cyanoethanamide-2-yl)-5-phenoxy Indole]
- IC50 [1]: 85.5 µM
- Fold less potent antioxidant than compound 5 ([1]; compared to compound 5): 3.03 fold
- IC50 (Aβ1–42): 20.6 µM
- inhibition at 100 µM [2]: 6.61%
- Highest concentration that showed nontoxicity on SK-N-SH cells [3]: 62.50 µM
- viability at 24 h (in vitro): 93.8 ± 3.66%

Structure (SMILES): Cc1ccc(CNC(=O)Cc2c(C)[nH]c3ccc(Oc4ccccc4)cc23)cc1 [Compound 9, 2-Methyl-3-(4-methylbenzylethanamide-2-yl)-5-phenoxy Indole]
- IC50 [1]: 265 µM
- IC50 (Aβ1–42): 53.7 µM
- % Viability ± RSD, neuroprotective effect against Aβ induced damage [4]: 80.38 ± 3.54%
- % Inhibition ± RSD of acetylcholinesterase [2]: 12.5 ± 4.57%
- % Viability ± RSD at the highest nontoxic concentration [3]: 95.21 ± 3.00%
- Highest concentration that showed nontoxicity on SK-N-SH cells [3]: 31.25 µM

Structure (SMILES): Cc1[nH]c2ccc(Oc3ccccc3)cc2c1CC(=O)NCc1ccc(F)cc1 [Compound 10, 2-Methyl-3-(4-fluorobenzylethanamide-2-yl)-5-phenoxy Indole]
- IC50 [1]: 86 µM
- Fold increase of antioxidant potency versus compound 9 ([1]; p-CH3 (compound 9) converted to p-F (compound 10)): 3.08 fold
- IC50 (Aβ1–42): 72.7 µM
- Fold reduction of anti-Aβ aggregation versus compound 9 (Aβ1–42; p-CH3 (compound 9) replaced with p-F (compound 10)): 1.4 fold
- % Viability ± RSD, neuroprotective effect against Aβ induced damage [4]: 63.05 ± 2.70%
- % Inhibition ± RSD of acetylcholinesterase [2]: 12.45 ± 4.98%
- % Viability ± RSD at the highest nontoxic concentration [3]: 80.51 ± 3.96%
- Highest concentration that showed nontoxicity on SK-N-SH cells [3]: 31.25 µM

Structure (SMILES): Cc1[nH]c2ccc(Oc3ccccc3)cc2c1CC(=O)Nc1ccccc1 [Compound 11, 2-Methyl-3-(phenylethanamide-2-yl)-5-phenoxy Indole]
- IC50 [1]: 111 µM
- IC50 (Aβ1–42): 13.1 µM
- inhibition at 100 µM [2]: 30%
- Highest concentration that showed nontoxicity on SK-N-SH cells [3]: 15.63 µM
- viability at 24 h (in vitro): 94.3 ± 3.31%

Structure (SMILES): Cc1ccc(S(=O)(=O)NC(=O)Cc2c(C)[nH]c3ccc(Oc4ccccc4)cc23)cc1 [Compound 12, 2-Methyl-3-(4-methylbenzesulfonylethanamide-2-yl)-5-phenoxy Indole]
- IC50 [1]: 121 µM
- IC50 (Aβ1–42): 9.48 µM
- % Viability ± RSD, neuroprotective effect against Aβ induced damage [4]: 71.85 ± 1.82%
- % Inhibition ± RSD of acetylcholinesterase [2]: 31.52 ± 4.90%
- % Viability ± RSD at the highest nontoxic concentration [3]: 90.73 ± 4.64%
- Highest concentration that showed nontoxicity on SK-N-SH cells [3]: 15.63 µM

Structure (SMILES): COc1cc(/C=C/C(=O)CC(=O)/C=C/c2ccc(O)c(OC)c2)ccc1O [Curcumin, reference compound]
- Highest concentration that showed nontoxicity on SK-N-SH cells [3]: 15.63 µM
- viability at 24 h (in vitro): 94.4 ± 1.83%

Structure (SMILES): C[S+](C)[O-] [DMSO]
- % Viability ± RSD at the highest nontoxic concentration [3]: 92.08 ± 2.86%

Structure (SMILES): O=C1O[C@H]([C@@H](O)CO)C(O)=C1O [Vitamin C, L-ascorbic acid, reference compound]
- IC50 [1]: 13.3 µM

Source: PMC10051485 (Pharmaceuticals, 2023)
